Test results taken from ChEMBL document CHEMBL3600363, “Discovery of potent, selective small molecule inhibitors of α-subtype of type III phosphatidylinositol-4-kinase (PI4KIIIα)” (Bioorg Med Chem Lett, 2015).

Key:
[1] = target: Phosphatidylinositol 4-kinase alpha (Homo sapiens, UniProt P42356); test: Inhibition of N-terminal FLAG-tagged human full length recombinant PI4K3alpha using D-myo-phosphatidylinositol substrate and ATP incubated for 45 mins by ADP-Glo kinase Assay
[2] = target: Phosphatidylinositol 4-phosphate 5-kinase type-1 gamma (Homo sapiens, UniProt O60331); test: Inhibition of PIP5K1C (unknown origin) using D-myo-phosphatidylinositol 4-phosphate substrate and ATP by ADP-Glo kinase Assay
Phosphatidylinositol 4-phosphate 5-kinase type-1 gamma, sequence (O60331 whole entry): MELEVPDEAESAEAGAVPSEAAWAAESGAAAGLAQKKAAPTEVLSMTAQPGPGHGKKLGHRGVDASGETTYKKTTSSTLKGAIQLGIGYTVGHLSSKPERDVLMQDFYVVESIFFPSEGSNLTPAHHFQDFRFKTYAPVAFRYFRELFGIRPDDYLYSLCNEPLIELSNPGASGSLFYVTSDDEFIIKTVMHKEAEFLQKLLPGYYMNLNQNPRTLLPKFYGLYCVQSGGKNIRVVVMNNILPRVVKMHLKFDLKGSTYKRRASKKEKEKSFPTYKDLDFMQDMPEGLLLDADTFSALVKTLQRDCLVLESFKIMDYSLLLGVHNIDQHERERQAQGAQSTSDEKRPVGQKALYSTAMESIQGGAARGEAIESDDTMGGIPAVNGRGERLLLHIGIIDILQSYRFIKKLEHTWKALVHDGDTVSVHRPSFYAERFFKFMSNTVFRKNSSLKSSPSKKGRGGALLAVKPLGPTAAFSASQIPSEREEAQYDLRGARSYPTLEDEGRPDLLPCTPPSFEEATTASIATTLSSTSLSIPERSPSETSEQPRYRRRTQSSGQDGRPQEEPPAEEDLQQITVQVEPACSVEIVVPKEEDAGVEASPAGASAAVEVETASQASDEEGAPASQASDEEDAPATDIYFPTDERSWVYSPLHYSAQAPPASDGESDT

[3] = target: Phosphatidylinositol 4-kinase beta (Homo sapiens, UniProt Q9UBF8); test: Inhibition of N-terminal GST-tagged human full length recombinant PI4K3beta expressed in Sf9 cells using D-myo-phosphatidylinositol substrate and ATP incubated for 45 mins by ADP-Glo kinase Assay
Phosphatidylinositol 4-kinase beta, sequence (Q9UBF8 whole entry, canonical isoform): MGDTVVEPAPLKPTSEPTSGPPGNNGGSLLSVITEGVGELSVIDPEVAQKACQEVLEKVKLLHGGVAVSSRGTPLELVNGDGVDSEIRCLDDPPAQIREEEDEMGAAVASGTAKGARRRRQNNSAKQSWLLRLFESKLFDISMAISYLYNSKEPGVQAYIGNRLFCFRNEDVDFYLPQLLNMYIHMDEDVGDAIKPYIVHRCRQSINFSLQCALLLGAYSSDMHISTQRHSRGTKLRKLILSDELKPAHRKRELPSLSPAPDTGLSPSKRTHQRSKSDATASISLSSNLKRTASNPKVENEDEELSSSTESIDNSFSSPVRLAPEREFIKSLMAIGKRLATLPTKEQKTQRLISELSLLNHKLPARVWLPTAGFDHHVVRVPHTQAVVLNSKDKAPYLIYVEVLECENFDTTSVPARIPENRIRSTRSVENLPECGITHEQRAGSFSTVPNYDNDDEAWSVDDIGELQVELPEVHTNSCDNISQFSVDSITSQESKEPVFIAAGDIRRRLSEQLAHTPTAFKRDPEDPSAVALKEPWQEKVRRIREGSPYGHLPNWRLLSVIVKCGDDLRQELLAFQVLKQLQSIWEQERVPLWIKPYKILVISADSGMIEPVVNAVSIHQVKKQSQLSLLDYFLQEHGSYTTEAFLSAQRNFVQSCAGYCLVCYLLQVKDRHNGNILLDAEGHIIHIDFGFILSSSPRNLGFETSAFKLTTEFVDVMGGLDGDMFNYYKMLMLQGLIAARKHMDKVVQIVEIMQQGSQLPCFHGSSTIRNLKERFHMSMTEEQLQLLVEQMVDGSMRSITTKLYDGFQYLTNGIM

[4] = target: T1, Phosphatidylinositol 4,5-bisphosphate 3-kinase catalytic subunit delta isoform (Homo sapiens, UniProt O00329); test: Inhibition of PI3Kdelta (unknown origin) pre-incubated for 20 mins before phosphatidylinositol 4, 5-bisphosphate substrate addition by kinase-glo plus luminescence assay
T1 sequence (O00329 whole entry): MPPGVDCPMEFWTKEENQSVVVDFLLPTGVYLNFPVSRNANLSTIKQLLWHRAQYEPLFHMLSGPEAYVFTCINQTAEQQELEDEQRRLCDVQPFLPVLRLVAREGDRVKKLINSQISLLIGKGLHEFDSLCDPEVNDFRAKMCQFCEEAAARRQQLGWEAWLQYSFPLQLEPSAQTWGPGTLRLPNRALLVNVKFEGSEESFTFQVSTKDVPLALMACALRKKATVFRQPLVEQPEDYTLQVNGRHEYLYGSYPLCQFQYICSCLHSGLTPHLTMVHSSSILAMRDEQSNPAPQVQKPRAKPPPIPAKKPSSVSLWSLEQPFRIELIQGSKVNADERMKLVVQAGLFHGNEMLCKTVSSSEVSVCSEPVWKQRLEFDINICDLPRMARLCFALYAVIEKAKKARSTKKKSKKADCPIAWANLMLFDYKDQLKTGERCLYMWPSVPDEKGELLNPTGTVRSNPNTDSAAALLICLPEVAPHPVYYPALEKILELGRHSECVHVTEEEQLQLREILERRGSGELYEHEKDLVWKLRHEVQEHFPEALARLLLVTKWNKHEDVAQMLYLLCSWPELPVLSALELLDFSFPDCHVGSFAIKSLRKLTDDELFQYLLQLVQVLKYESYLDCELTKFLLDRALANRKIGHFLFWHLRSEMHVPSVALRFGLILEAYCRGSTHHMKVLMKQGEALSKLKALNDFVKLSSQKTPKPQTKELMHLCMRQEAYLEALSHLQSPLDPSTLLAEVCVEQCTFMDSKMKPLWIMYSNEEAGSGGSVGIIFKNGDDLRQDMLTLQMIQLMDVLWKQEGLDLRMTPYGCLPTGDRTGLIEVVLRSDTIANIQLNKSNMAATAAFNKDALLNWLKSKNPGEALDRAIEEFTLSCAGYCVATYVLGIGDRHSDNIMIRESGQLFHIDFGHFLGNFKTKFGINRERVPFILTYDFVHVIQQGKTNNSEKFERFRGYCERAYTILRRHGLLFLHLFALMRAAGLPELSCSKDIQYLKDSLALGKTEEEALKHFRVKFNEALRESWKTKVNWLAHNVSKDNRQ

[5] = target: Phosphatidylinositol 4,5-bisphosphate 3-kinase catalytic subunit gamma isoform (Homo sapiens, UniProt P48736); test: Inhibition of PI3Kgamma (unknown origin) pre-incubated for 20 mins before phosphatidylinositol 4, 5-bisphosphate substrate addition by kinase-glo plus luminescence assay
[6] = target: Phosphatidylinositol 4,5-bisphosphate 3-kinase catalytic subunit beta isoform (Homo sapiens, UniProt P42338); test: Inhibition of PI3Kbeta (unknown origin) pre-incubated for 20 mins before phosphatidylinositol 4, 5-bisphosphate substrate addition by kinase-glo plus luminescence assay
Phosphatidylinositol 4,5-bisphosphate 3-kinase catalytic subunit beta isoform, sequence (P42338 whole entry, canonical isoform): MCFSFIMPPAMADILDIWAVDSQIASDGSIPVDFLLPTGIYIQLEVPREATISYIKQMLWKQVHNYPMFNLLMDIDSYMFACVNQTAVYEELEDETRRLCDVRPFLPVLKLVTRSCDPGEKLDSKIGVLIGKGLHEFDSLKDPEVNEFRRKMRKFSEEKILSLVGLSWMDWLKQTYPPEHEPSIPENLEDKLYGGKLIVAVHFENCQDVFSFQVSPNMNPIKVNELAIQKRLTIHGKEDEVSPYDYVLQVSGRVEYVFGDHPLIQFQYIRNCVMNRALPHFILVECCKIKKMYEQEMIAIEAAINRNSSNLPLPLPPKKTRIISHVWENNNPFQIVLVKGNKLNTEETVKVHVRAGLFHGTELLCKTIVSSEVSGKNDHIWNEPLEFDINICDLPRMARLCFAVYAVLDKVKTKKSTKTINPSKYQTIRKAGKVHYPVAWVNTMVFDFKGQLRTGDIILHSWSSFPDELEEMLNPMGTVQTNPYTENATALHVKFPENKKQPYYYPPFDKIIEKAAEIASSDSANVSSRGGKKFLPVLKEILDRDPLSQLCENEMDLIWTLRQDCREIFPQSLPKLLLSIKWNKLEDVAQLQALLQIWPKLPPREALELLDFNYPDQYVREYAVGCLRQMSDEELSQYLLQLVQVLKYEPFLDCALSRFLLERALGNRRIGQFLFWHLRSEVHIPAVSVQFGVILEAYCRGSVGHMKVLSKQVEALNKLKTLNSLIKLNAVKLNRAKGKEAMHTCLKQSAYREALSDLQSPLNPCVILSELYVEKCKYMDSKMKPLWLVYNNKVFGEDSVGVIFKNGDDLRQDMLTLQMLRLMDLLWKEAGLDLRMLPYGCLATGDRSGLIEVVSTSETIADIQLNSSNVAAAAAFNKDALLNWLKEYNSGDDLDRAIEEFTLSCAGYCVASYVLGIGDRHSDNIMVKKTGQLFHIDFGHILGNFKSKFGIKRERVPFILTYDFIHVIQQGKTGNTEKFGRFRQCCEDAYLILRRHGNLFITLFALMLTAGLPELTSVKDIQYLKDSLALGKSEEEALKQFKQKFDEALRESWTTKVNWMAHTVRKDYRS

[7] = target: Phosphatidylinositol 4,5-bisphosphate 3-kinase catalytic subunit alpha isoform (Homo sapiens, UniProt P42336); test: Inhibition of PI3Kalpha (unknown origin) pre-incubated for 20 mins before phosphatidylinositol 4, 5-bisphosphate substrate addition by kinase-glo plus luminescence assay

Phosphatidylinositol 4-kinase alpha, sequence (P42356 whole entry): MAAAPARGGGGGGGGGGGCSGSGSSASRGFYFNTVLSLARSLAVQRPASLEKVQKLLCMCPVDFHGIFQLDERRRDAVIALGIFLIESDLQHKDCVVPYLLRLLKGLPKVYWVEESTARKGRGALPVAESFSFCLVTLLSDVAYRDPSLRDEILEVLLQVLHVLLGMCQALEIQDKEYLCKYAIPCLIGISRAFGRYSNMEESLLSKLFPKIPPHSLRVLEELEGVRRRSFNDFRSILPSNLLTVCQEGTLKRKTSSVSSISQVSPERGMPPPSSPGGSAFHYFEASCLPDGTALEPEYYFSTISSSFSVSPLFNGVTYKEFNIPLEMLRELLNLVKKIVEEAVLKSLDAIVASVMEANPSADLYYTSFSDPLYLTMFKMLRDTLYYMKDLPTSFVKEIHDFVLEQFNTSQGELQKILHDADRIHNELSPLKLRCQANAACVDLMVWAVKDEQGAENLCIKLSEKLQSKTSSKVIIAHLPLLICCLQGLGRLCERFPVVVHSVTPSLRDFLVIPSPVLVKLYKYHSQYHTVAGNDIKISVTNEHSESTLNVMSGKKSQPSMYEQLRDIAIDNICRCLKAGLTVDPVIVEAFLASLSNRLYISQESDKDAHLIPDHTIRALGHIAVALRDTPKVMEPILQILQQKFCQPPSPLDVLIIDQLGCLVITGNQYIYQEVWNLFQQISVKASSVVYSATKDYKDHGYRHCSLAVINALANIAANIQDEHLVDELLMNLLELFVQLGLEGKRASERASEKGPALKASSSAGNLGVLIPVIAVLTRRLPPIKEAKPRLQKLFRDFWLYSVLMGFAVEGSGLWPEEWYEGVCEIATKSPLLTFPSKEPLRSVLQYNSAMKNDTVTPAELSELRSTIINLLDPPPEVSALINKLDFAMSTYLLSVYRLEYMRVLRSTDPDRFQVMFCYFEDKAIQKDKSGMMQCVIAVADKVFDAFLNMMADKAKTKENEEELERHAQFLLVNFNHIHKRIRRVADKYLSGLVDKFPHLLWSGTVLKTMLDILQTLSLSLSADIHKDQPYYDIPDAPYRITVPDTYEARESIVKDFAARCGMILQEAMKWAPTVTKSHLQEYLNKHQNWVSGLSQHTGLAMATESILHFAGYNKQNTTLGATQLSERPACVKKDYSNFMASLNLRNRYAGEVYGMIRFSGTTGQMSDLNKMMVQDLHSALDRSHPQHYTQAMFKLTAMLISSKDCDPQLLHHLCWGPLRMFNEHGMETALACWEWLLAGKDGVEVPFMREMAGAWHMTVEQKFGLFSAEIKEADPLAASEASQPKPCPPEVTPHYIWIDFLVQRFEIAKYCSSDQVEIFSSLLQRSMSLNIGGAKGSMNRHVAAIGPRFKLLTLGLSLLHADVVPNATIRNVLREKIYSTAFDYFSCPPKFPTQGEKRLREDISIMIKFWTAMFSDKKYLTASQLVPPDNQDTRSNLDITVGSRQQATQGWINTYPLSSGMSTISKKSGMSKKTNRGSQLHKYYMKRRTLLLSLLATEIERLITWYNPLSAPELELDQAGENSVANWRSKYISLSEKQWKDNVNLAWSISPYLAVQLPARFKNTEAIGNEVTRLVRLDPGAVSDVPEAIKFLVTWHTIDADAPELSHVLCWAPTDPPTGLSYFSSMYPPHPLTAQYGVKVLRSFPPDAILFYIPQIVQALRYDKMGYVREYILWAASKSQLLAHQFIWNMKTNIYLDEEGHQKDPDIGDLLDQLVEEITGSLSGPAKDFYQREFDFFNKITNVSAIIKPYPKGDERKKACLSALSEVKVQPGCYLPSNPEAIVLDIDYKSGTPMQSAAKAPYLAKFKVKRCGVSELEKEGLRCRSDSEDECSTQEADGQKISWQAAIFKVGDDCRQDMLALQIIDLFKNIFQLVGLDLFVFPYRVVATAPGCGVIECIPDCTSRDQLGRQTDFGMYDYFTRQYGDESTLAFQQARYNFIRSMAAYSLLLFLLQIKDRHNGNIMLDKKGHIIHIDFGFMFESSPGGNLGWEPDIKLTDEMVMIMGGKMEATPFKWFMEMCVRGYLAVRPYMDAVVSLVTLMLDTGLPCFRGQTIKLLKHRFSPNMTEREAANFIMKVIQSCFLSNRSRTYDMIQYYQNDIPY

SMILES	IC50 [1] [µM]	IC50 [2] [µM]	IC50 [3] [µM]	IC50 [4] [µM]	IC50 [5] [µM]	IC50 [6] [µM]	IC50 [7] [µM]
COc1ccc(-c2ccc3nc(N)sc3c2)cn1	0.631	25.1	1	0.794	0.398	–	–
Nc1nc2ccc(-c3ccncc3)cc2s1	2.51	–	1	–	–	–	–
COCc1ccc(-c2ccc3nc(N)sc3c2)cn1	1	> 100	0.316	6.31	–	15.8	2.51
Nc1nc2ccc(-c3ccc(CO)nc3)cc2s1	1.58	> 100	0.794	–	–	–	3.16
CNC(=O)c1ccc(-c2ccc3nc(N)sc3c2)cn1	3.16	31.6	2.51	–	–	–	2
Nc1nc2ccc(-c3ccccn3)cc2s1	10	> 100	2.51	79.4	12.6	–	10
Nc1nc2ccc(-c3cccnc3)cc2s1	1.58	31.6	0.631	1.26	–	–	2
Nc1nc2ccc(-c3ncccn3)cc2s1	15.8	31.6	6.31	50.1	31.6	–	> 100
Cn1ccc(-c2ccc3nc(N)sc3c2)n1	2.51	63.1	1.26	12.6	2.51	15.8	6.31
Cn1nccc1-c1ccc2nc(N)sc2c1	12.6	> 100	1	25.1	2.51	31.6	12.6
Cn1cc(-c2ccc3nc(N)sc3c2)cn1	2.51	> 100	1.26	7.94	2.51	15.8	7.94
CCn1cc(-c2ccc3nc(N)sc3c2)cn1	3.16	> 100	1.58	20	3.16	31.6	12.6
CCCn1cc(-c2ccc3nc(N)sc3c2)cn1	1.58	25.1	2	12.6	1.58	12.6	12.6
CC(C)n1cc(-c2ccc3nc(N)sc3c2)cn1	25.1	63.1	2.51	20	3.98	–	15.8
Nc1nc2ccc(-c3cnn(C4CC4)c3)cc2s1	7.94	> 100	2	3.98	1	10	10
Nc1nc2ccc(-c3cnn(CC4CC4)c3)cc2s1	0.631	–	2	20	1.26	15.8	12.6
Nc1nc2ccc(-c3cnn(Cc4ccccc4)c3)cc2s1	0.158	> 100	0.794	20	2	25.1	7.94
Cn1ccc(-c2ccc3nc(N)sc3c2)cc1=O	0.501	> 100	0.316	5.01	–	63.1	2.51
CCn1ccc(-c2ccc3nc(N)sc3c2)cc1=O	0.316	> 100	0.316	10	3.16	50.1	6.31
COCCOn1ccc(-c2ccc3nc(N)sc3c2)cc1=O	0.631	> 100	10	> 200	10	> 200	25.1
Nc1nc2ccc(-c3ccccc3)cc2s1	2.51	> 100	0.501	–	–	–	12.6
